The record followed here is ChEMBL document CHEMBL1148480, “Structure-activity studies of orexin a and orexin B at the human orexin 1 and orexin 2 receptors led to orexin 2 receptor selective and orexin 1 receptor preferring ligands” (J Med Chem, 2004).

pEC50: −log10 of the molar value. Residues, ends and D or L forms follow the SMILES beside them.

The target of the experiment is T1, Orexin/Hypocretin receptor type 1 (Homo sapiens, UniProt O43613).
T1 sequence (O43613 whole entry): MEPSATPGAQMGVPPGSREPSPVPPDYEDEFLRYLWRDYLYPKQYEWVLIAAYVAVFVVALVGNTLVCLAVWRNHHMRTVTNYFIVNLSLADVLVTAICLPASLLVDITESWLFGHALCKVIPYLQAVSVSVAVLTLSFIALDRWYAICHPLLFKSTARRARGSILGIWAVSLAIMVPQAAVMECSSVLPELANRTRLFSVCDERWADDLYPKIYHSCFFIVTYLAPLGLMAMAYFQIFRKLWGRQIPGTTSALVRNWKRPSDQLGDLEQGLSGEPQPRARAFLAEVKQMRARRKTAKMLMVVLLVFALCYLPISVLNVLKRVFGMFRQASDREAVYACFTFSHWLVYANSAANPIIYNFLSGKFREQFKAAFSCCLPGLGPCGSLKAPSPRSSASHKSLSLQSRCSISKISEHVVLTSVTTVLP
Put plainly: Effective agonist concentration to human orexin receptor type 1 determined using the Xlfit program. The format is functional.
As a reminder, the pEC50 is the EC50 on a negative log10 scale, so that one unit is a factor of ten. Take `CC[C@H](C)[C@H](NC(=O)CNC(=O)[C@H](C)NC(=O)[C@H](C)NC(=O)[C@H](Cc1cnc[nH]1)NC(=O)[C@H](CC(N)=O)NC(=O)CNC(=O)[C@H](C)NC(=O)CNC(=O)[C@H](Cc1cnc[nH]1)NC(=O)[C@H](CC(C)C)NC(=O)[C@H](CC(C)C)NC(=O)[C@H](CCC(=O)O)NC(=O)[C@H](Cc1ccc(O)cc1)NC(=O)[C@H](CC(C)C)NC(=O)[C@H](CCCNC(=N)N)NC(=O)[C@H](CS)NC(=O)[C@H](CO)NC(=O)[C@H](CS)NC(=O)[C@@H](NC(=O)[C@H](CCCCN)NC(=O)[C@H](CCC(N)=O)NC(=O)[C@H](CCCNC(=N)N)NC(=O)[C@H](CS)NC(=O)[C@H](CS)NC(=O)[C@H](CC(=O)O)NC(=O)[C@@H]1CCCN1C(=O)[C@H](CC(C)C)NC(=O)[C@@H]1CCCN1C(=O)[C@@H]1CCC(=O)N1)[C@@H](C)O)C(=O)N[C@@H](CC(C)C)C(=O)N[C@H](C(=O)N[C@@H](CC(C)C)C(=O)O)[C@@H](C)O`: the pEC50 was 6.80. In the case of `CC[C@H](C)[C@H](NC(=O)CNC(=O)[C@H](C)NC(=O)[C@H](C)NC(=O)[C@H](Cc1c[nH]cn1)NC(=O)[C@H](CC(N)=O)NC(=O)CNC(=O)[C@H](C)NC(=O)CNC(=O)[C@H](Cc1c[nH]cn1)NC(=O)[C@H](CC(C)C)NC(=O)[C@H](CC(C)C)NC(=O)[C@H](CCC(=O)O)NC(=O)[C@H](Cc1ccc(O)cc1)NC(=O)[C@H](CC(C)C)NC(=O)[C@H](CCCN=C(N)N)NC(=O)[C@H](CS)NC(=O)[C@H](CO)NC(=O)[C@H](CS)NC(=O)[C@@H](NC(=O)[C@H](CCCCN)NC(=O)[C@H](CCC(N)=O)NC(=O)[C@H](CCCN=C(N)N)NC(=O)[C@H](CS)NC(=O)[C@@H](N)CS)[C@@H](C)O)C(=O)N[C@@H](CC(C)C)C(=O)N[C@H](C(=O)N[C@@H](CC(C)C)C(N)=O)[C@@H](C)O` (H-CCRQKTCSCRLYELLHGAGNHAAGILTL-NH2), the pEC50 was 6.09. As to `CC[C@H](C)[C@H](NC(=O)CNC(=O)[C@H](C)NC(=O)[C@H](C)NC(=O)[C@H](Cc1c[nH]cn1)NC(=O)[C@H](CC(N)=O)NC(=O)CNC(=O)[C@H](CO)NC(=O)[C@H](C)NC(=O)[C@H](CCC(N)=O)NC(=O)[C@H](CC(C)C)NC(=O)[C@H](CC(C)C)NC(=O)[C@H](CCCN=C(N)N)NC(=O)[C@H](CCC(N)=O)NC(=O)[C@H](CC(C)C)NC(=O)[C@H](CCCN=C(N)N)NC(=O)CNC(=O)[C@H](CCC(N)=O)NC(=O)[C@H](C)NC(=O)CN)C(=O)N[C@@H](CC(C)C)C(=O)N[C@H](C(=O)N[C@@H](CCSC)C(N)=O)[C@@H](C)O` (H-GAQGRLQRLLQASGNHAAGILTM-NH2), the pEC50 is 5.13.

`CC[C@H](C)[C@H](NC(=O)CNC(=O)[C@H](C)NC(=O)[C@H](C)NC(=O)[C@H](Cc1cnc[nH]1)NC(=O)[C@H](CC(N)=O)NC(=O)CNC(=O)[C@H](CO)NC(=O)[C@H](C)NC(=O)[C@H](CCC(N)=O)NC(=O)[C@H](CC(C)C)NC(=O)[C@H](CC(C)C)NC(=O)[C@H](CCCNC(=N)N)NC(=O)[C@H](CCC(N)=O)NC(=O)[C@H](CC(C)C)NC(=O)[C@H](CCCNC(=N)N)NC(=O)CNC(=O)[C@H](C)NC(=O)[C@H](CC(C)C)NC(=O)CN)C(=O)N[C@@H](CC(C)C)C(=O)N[C@H](C(=O)N[C@@H](CCSC)C(N)=O)[C@@H](C)O` (H-GLAGRLQRLLQASGNHAAGILTM-NH2) gave a pEC50 of 5.79. Regarding `CC[C@H](C)[C@H](NC(=O)CNC(=O)[C@H](C)NC(=O)[C@H](C)NC(=O)[C@H](Cc1c[nH]cn1)NC(=O)[C@H](CC(N)=O)NC(=O)CNC(=O)[C@H](CO)NC(=O)[C@H](C)NC(=O)[C@H](CCC(N)=O)NC(=O)[C@H](CC(C)C)NC(=O)[C@H](CC(C)C)NC(=O)[C@H](CCCN=C(N)N)NC(=O)[C@H](CCC(N)=O)NC(=O)[C@H](CC(C)C)NC(=O)[C@H](CCCN=C(N)N)NC(=O)CNC(=O)[C@@H]1CCCN1C(=O)[C@H](CC(C)C)NC(=O)CN)C(=O)N[C@@H](CC(C)C)C(=O)N[C@H](C(=O)N[C@@H](CCSC)C(N)=O)[C@@H](C)O` (H-GLPGRLQRLLQASGNHAAGILTM-NH2), the pEC50 is 5.92.

For the compound `CC[C@H](C)[C@H](NC(=O)CNC(=O)[C@H](C)NC(=O)[C@H](C)NC(=O)[C@H](Cc1c[nH]cn1)NC(=O)[C@H](CC(N)=O)NC(=O)CNC(=O)[C@H](CO)NC(=O)[C@H](C)NC(=O)[C@H](CCC(N)=O)NC(=O)[C@H](CC(C)C)NC(=O)[C@H](CC(C)C)NC(=O)[C@H](CCCN=C(N)N)NC(=O)[C@H](CCC(N)=O)NC(=O)[C@H](CC(C)C)NC(=O)[C@H](CCCN=C(N)N)NC(=O)[C@H](C)NC(=O)[C@H](CCC(N)=O)NC(=O)[C@H](CC(C)C)NC(=O)CN)C(=O)N[C@@H](CC(C)C)C(=O)N[C@H](C(=O)N[C@@H](CCSC)C(N)=O)[C@@H](C)O` (H-GLQARLQRLLQASGNHAAGILTM-NH2), the pEC50 was 5.64.

As for `CC[C@H](C)[C@H](NC(=O)CNC(=O)[C@H](C)NC(=O)[C@H](C)NC(=O)[C@H](Cc1c[nH]cn1)NC(=O)[C@H](CC(N)=O)NC(=O)CNC(=O)[C@H](CO)NC(=O)[C@H](C)NC(=O)[C@H](CCC(N)=O)NC(=O)[C@H](CC(C)C)NC(=O)[C@H](CC(C)C)NC(=O)[C@H](CCCN=C(N)N)NC(=O)[C@H](CCC(N)=O)NC(=O)[C@H](CC(C)C)NC(=O)[C@H](C)NC(=O)CNC(=O)[C@H](CCC(N)=O)NC(=O)[C@H](CC(C)C)NC(=O)CN)C(=O)N[C@@H](CC(C)C)C(=O)N[C@H](C(=O)N[C@@H](CCSC)C(=O)O)[C@@H](C)O` (H-GLQGALQRLLQASGNHAAGILTM-OH), the pEC50 is 5.16.

Consider `CC[C@H](C)[C@H](NC(=O)CNC(=O)[C@H](C)NC(=O)[C@H](C)NC(=O)[C@H](Cc1c[nH]cn1)NC(=O)[C@H](CC(N)=O)NC(=O)CNC(=O)[C@H](CO)NC(=O)[C@H](C)NC(=O)[C@H](CCC(N)=O)NC(=O)[C@H](CC(C)C)NC(=O)[C@H](CC(C)C)NC(=O)[C@H](CCCNC(=N)N)NC(=O)[C@H](CCC(N)=O)NC(=O)[C@H](C)NC(=O)[C@H](CCCNC(=N)N)NC(=O)CNC(=O)[C@H](CCC(N)=O)NC(=O)[C@H](CC(C)C)NC(=O)CN)C(=O)N[C@@H](CC(C)C)C(=O)N[C@H](C(=O)N[C@@H](CCSC)C(=O)O)[C@@H](C)O` (H-GLQGRAQRLLQASGNHAAGILTM-OH), for which the pEC50 is 4.94. `CC[C@H](C)[C@H](NC(=O)CNC(=O)[C@H](C)NC(=O)[C@H](C)NC(=O)[C@H](Cc1c[nH]cn1)NC(=O)[C@H](CC(N)=O)NC(=O)CNC(=O)[C@H](CO)NC(=O)[C@H](C)NC(=O)[C@H](CCC(N)=O)NC(=O)[C@H](CC(C)C)NC(=O)[C@H](CC(C)C)NC(=O)[C@H](CCCNC(=N)N)NC(=O)[C@H](C)NC(=O)[C@H](CC(C)C)NC(=O)[C@H](CCCNC(=N)N)NC(=O)CNC(=O)[C@H](CCC(N)=O)NC(=O)[C@H](CC(C)C)NC(=O)CN)C(=O)N[C@@H](CC(C)C)C(=O)N[C@H](C(=O)N[C@@H](CCSC)C(=O)O)[C@@H](C)O` (H-GLQGRLARLLQASGNHAAGILTM-OH): the pEC50 is 5.89. Turning to `CC[C@H](C)[C@H](NC(=O)CNC(=O)[C@H](C)NC(=O)[C@H](C)NC(=O)[C@H](Cc1cnc[nH]1)NC(=O)[C@H](CC(N)=O)NC(=O)CNC(=O)[C@H](CO)NC(=O)[C@H](C)NC(=O)[C@H](CCC(N)=O)NC(=O)[C@H](CC(C)C)NC(=O)[C@H](CC(C)C)NC(=O)[C@H](C)NC(=O)[C@H](CCC(N)=O)NC(=O)[C@H](CC(C)C)NC(=O)[C@H](CCCNC(=N)N)NC(=O)CNC(=O)[C@H](CCC(N)=O)NC(=O)[C@H](CC(C)C)NC(=O)CN)C(=O)N[C@@H](CC(C)C)C(=O)N[C@H](C(=O)N[C@@H](CCSC)C(=O)O)[C@@H](C)O` (H-GLQGRLQALLQASGNHAAGILTM-OH), the pEC50 is 5.36. The compound `CC[C@H](C)[C@H](NC(=O)CNC(=O)[C@H](C)NC(=O)[C@H](C)NC(=O)[C@H](Cc1cnc[nH]1)NC(=O)[C@H](CC(N)=O)NC(=O)CNC(=O)[C@H](CO)NC(=O)[C@H](C)NC(=O)[C@H](CCC(N)=O)NC(=O)[C@H](CC(C)C)NC(=O)[C@H](CC(C)C)NC(=O)[C@@H]1CCCN1C(=O)[C@H](CCC(N)=O)NC(=O)[C@H](CC(C)C)NC(=O)[C@H](CCCNC(=N)N)NC(=O)CNC(=O)[C@H](CCC(N)=O)NC(=O)[C@H](CC(C)C)NC(=O)CN)C(=O)N[C@@H](CC(C)C)C(=O)N[C@H](C(=O)N[C@@H](CCSC)C(N)=O)[C@@H](C)O` (H-GLQGRLQPLLQASGNHAAGILTM-NH2) showed a pEC50 of 4.75. Compared with the last compound, the pEC50 is 0.61 log units lower.

The compound `CC[C@H](C)[C@H](NC(=O)CNC(=O)[C@H](C)NC(=O)[C@H](C)NC(=O)[C@H](Cc1c[nH]cn1)NC(=O)[C@H](CC(N)=O)NC(=O)CNC(=O)[C@H](C)NC(=O)[C@H](C)NC(=O)[C@H](CCC(N)=O)NC(=O)[C@H](CC(C)C)NC(=O)[C@H](CC(C)C)NC(=O)[C@H](CCCN=C(N)N)NC(=O)[C@H](CCC(N)=O)NC(=O)[C@H](CC(C)C)NC(=O)[C@H](CCCN=C(N)N)NC(=O)CNC(=O)[C@H](CCC(N)=O)NC(=O)[C@H](CC(C)C)NC(=O)CN)C(=O)N[C@@H](CC(C)C)C(=O)N[C@H](C(=O)N[C@@H](CCSC)C(=O)O)[C@@H](C)O` (H-GLQGRLQRLLQAAGNHAAGILTM-OH) gave a negative logarithm of the EC50 (pEC50) of 5.84. Compound `CC[C@H](C)[C@H](NC(=O)CNC(=O)[C@H](C)NC(=O)[C@H](C)NC(=O)[C@H](Cc1c[nH]cn1)NC(=O)[C@H](CC(N)=O)NC(=O)[C@H](C)NC(=O)[C@H](CO)NC(=O)[C@H](C)NC(=O)[C@H](CCC(N)=O)NC(=O)[C@H](CC(C)C)NC(=O)[C@H](CC(C)C)NC(=O)[C@H](CCCN=C(N)N)NC(=O)[C@H](CCC(N)=O)NC(=O)[C@H](CC(C)C)NC(=O)[C@H](CCCN=C(N)N)NC(=O)CNC(=O)[C@H](CCC(N)=O)NC(=O)[C@H](CC(C)C)NC(=O)CN)C(=O)N[C@@H](CC(C)C)C(=O)N[C@H](C(=O)N[C@@H](CCSC)C(=O)O)[C@@H](C)O` (H-GLQGRLQRLLQASANHAAGILTM-OH) showed a pEC50 of 5.66.
